Assay results as given in ChEMBL document CHEMBL5380833 (J Med Chem, 2023).
Calls of active or inactive are those of the source. The rule behind the calls is not given here.

Assays:
[1] = target: T1, Protein cereblon/Tyrosine-protein kinase ITK/TSK (Homo sapiens, UniProt Q08881+Q96SW2); assay: PROTAC activity at CRBN/ITK in human Jurkat cells assessed as induction of ITK degradation by Western blot analysis; format: cell-based; conditions: read-out: EC50
Target sequence in this assay (Q08881 whole entry): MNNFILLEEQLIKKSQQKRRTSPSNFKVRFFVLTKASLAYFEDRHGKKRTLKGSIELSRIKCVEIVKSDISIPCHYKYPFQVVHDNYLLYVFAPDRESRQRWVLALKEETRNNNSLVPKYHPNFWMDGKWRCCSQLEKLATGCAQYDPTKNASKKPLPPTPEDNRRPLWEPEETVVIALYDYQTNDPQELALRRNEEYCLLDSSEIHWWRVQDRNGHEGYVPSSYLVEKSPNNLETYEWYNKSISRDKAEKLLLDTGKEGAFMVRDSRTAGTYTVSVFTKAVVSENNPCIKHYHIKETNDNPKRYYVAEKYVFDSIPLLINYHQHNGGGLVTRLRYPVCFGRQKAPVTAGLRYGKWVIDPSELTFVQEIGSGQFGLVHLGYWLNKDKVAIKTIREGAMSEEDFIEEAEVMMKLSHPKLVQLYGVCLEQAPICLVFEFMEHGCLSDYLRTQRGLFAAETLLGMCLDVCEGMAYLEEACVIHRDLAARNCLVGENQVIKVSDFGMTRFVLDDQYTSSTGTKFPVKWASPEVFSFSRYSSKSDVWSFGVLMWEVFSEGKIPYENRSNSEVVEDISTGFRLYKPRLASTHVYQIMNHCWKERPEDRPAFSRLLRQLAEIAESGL
Target sequence in this assay (Q96SW2 whole entry): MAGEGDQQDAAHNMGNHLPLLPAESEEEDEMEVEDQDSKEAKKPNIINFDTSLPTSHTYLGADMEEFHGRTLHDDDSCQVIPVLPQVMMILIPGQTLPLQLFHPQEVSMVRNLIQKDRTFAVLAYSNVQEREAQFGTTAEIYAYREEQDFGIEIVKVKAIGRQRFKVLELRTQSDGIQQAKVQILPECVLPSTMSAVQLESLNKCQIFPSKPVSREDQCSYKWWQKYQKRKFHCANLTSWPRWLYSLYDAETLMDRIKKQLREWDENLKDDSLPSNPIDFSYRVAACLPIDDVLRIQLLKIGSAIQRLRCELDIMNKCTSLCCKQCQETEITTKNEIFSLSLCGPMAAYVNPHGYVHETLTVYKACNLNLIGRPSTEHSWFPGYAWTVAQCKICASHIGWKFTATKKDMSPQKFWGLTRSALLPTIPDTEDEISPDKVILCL

[2] = target: T1, Protein cereblon/Tyrosine-protein kinase ITK/TSK; assay: PROTAC activity at CRBN/ITK in human Jurkat cells assessed as residual activity at 10 uM incubated for 16 hrs relative to control; format: cell-based
Target sequence in this assay (Q08881 whole entry, looked up): as the sequence (Q08881 whole entry) above
Target sequence in this assay (Q96SW2 whole entry, looked up): as the sequence (Q96SW2 whole entry) above

[3] = target: T1, Protein cereblon/Tyrosine-protein kinase ITK/TSK; assay: PROTAC activity at CRBN/ITK in human Jurkat cells assessed as downregulation of ITK protein at 100 nM preincubated with cells for 12 hrs followed by compound washout measured after 24 hrs; format: cell-based
Target sequence in this assay (Q08881 whole entry, looked up): as the sequence (Q08881 whole entry) above
Target sequence in this assay (Q96SW2 whole entry, looked up): as the sequence (Q96SW2 whole entry) above

[4] = target: T1, Protein cereblon/Tyrosine-protein kinase ITK/TSK; assay: PROTAC activity at CRBN/ITK in human MOLT-4 cells assessed as induction of ITK degradation; format: cell-based
Target sequence in this assay (Q08881 whole entry): as the sequence (Q08881 whole entry) above
Target sequence in this assay (Q96SW2 whole entry): as the sequence (Q96SW2 whole entry) above

[5] = target: Tyrosine-protein kinase BTK (Homo sapiens) (UniProt Q06187); assay: Induction of degradation of BTK in human Ramos cells at 0.01 to 10 uM by immunoblotting analysis; format: cell-based; conditions: dose 0.01-10 µM
Sequence of Tyrosine-protein kinase BTK (Homo sapiens) (Q06187 whole entry): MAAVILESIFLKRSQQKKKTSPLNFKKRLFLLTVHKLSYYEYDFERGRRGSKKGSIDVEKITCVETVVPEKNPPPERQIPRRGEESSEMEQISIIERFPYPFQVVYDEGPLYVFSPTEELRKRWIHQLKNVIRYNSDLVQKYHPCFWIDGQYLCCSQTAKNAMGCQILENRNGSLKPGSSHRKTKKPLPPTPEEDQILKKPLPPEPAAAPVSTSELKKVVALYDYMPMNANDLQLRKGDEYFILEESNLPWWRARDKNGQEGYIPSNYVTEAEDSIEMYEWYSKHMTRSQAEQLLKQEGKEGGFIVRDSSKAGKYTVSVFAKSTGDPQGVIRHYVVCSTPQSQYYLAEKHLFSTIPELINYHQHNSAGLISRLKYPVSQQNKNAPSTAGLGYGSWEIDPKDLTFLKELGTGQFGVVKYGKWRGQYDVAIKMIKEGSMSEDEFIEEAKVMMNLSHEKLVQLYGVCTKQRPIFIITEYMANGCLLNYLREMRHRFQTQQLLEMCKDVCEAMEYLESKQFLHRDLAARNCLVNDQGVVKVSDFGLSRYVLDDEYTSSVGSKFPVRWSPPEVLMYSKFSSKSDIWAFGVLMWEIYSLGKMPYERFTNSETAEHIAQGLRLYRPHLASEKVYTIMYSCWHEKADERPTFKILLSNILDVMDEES

[6] = target: Tyrosine-protein kinase Lck (Homo sapiens) (UniProt P06239); assay: Induction of degradation of LCK in human Jurkat cells at 0.01 to 10 uM by immunoblotting analysis; format: cell-based; conditions: dose 0.01-10 µM
Sequence of Tyrosine-protein kinase Lck (Homo sapiens) (P06239 2-509 limits assumed): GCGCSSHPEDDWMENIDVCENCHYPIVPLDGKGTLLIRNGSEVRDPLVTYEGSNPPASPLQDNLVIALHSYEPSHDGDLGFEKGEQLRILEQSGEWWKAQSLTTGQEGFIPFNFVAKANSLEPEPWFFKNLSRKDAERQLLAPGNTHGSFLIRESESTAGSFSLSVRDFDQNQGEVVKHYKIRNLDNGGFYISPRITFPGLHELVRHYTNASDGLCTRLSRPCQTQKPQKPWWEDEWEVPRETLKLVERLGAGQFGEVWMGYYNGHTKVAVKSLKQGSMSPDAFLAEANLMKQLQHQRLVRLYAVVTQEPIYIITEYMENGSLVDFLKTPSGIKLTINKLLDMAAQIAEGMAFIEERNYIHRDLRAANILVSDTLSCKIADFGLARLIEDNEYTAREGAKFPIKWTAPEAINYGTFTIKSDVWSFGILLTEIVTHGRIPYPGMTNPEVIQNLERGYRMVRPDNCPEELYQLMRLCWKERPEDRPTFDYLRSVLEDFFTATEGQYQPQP

[7] = target: T2, Tyrosine-protein kinase TXK (Homo sapiens) (UniProt P42681); assay: Induction of degradation of RLK in human Jurkat cells at 0.01 to 10 uM by immunoblotting analysis; format: cell-based; conditions: dose 0.01-10 µM
T2 sequence (whole entry): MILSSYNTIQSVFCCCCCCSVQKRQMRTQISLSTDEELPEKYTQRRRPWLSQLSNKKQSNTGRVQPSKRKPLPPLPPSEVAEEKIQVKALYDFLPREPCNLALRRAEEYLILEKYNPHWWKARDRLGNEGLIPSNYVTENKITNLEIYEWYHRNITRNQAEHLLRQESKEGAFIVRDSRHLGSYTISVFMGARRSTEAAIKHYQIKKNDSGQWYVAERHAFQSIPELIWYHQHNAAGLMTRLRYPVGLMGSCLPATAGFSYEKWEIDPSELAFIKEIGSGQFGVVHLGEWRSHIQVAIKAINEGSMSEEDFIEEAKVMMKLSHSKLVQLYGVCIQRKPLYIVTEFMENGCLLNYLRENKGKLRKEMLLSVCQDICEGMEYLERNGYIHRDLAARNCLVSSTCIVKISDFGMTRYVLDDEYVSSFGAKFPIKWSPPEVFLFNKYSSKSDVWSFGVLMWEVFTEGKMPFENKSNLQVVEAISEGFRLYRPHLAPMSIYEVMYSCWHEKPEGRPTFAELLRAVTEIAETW

[8] = tested on: Jurkat; assay: Inhibition of TCR signalling in human Jurkat cells assessed as reduction in PLCgamma1 phosphorylation preincubated with cells for 12 hrs followed by anti-CD-2 antibody stimulation for 5 mins by Western blot analysis; format: cell-based; conditions: dose 0.01-3 µM
[9] = AUC (0 to infinity) in Balb/c mouse at 5 mg/kg, iv measured upto 24 hrs by LC-MS/MS analysis; format: ADME, organism-based; set-up: time < 24 hrs, dose 5 mg/kg, route iv; conditions: in vivo
[10] = Half life in Balb/c mouse at 10 mg/kg, ip measured upto 24 hrs by LC-MS/MS analysis; format: ADME, organism-based; conditions: in vivo
[11] = Volume of distribution at steady state in Balb/c mouse at 5 mg/kg, iv measured upto 24 hrs by LC-MS/MS analysis; format: ADME, organism-based; conditions: in vivo, read-out: Vdss
[12] = Clearance in Balb/c mouse at 10 mg/kg, ip measured upto 24 hrs by LC-MS/MS analysis; format: ADME, organism-based; conditions: in vivo
[13] = Cmax in Balb/c mouse at 5 mg/kg, iv measured upto 24 hrs by LC-MS/MS analysis; format: ADME, organism-based; set-up: time < 24 hrs, dose 5 mg/kg, route iv; conditions: in vivo
[14] = Cmax in Balb/c mouse at 10 mg/kg, ip measured upto 24 hrs by LC-MS/MS analysis; format: ADME, organism-based; set-up: dose 10 mg/kg, time < 24 hrs, route ip; conditions: in vivo
[15] = MRT last in Balb/c mouse at 10 mg/kg, ip measured upto 24 hrs by LC-MS/MS analysis; format: ADME, organism-based; conditions: in vivo
[16] = Bioavailability in Balb/c mouse at 10 mg/kg, ip measured upto 24 hrs by LC-MS/MS analysis; format: ADME, organism-based; conditions: in vivo
[17] = Toxicity in Balb/c mouse assessed as drug tolerance at 10 mg/kg, ip measured upto 24 hrs by LC-MS/MS analysis; format: organism-based; conditions: in vivo
[18] = Toxicity in Balb/c mouse assessed as side effects at 5 mg/kg, iv measured upto 24 hrs by LC-MS/MS analysis; format: organism-based; conditions: in vivo
[19] = Toxicity in Balb/c mouse assessed as side effects at 10 mg/kg, ip measured upto 24 hrs by LC-MS/MS analysis; format: organism-based; conditions: in vivo
[20] = target: Tyrosine-protein kinase Tec (Homo sapiens) (UniProt P42680); assay: Induction of degradation of TEC in human Jurkat cells at 0.01 to 10 uM by immunoblotting analysis; conditions: dose 0.01-10 µM
Sequence of Tyrosine-protein kinase Tec (Homo sapiens) (P42680 whole entry, looked up): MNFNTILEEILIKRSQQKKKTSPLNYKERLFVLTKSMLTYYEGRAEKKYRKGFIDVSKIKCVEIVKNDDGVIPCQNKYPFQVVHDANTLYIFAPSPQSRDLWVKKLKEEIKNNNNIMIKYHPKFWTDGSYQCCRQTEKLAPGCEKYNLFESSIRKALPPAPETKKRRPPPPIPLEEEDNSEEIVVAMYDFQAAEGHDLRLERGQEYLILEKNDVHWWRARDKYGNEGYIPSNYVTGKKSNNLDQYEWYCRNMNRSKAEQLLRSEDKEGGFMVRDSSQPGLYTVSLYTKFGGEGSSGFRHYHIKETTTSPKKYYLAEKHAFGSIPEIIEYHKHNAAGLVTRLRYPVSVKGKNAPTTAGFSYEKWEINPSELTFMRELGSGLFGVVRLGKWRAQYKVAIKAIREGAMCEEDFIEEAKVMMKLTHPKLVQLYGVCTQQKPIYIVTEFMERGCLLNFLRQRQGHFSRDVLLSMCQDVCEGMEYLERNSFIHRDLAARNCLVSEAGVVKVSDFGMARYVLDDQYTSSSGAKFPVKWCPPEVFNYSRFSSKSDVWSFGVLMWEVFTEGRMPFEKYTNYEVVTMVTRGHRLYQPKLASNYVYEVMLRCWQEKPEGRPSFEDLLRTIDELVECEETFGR

EC50 [1]: 7 nM
Activity [2]: 12%
Activity [3]: Active
DC50 [4]: 6 nM
Activity [5]: inactive
Activity [6]: inactive
Activity [7]: inactive
AUC(0-inf) [9]: 1080 ng·h/mL
half-life [10]: 1.95 h
Vd [11]: 12.9 L/kg
CL/F [12]: 109 mL/min/kg
Cmax [13]: 3320 ng/mL
Cmax [14]: 1240 ng/mL
MRT last at 24 h [15]: 1.06 h
bioavailability [16]: 73.5%
Activity [20]: inactive
SMILES: CN(CCCCCC(=O)Nc1ccc2c(c1)C(=O)N(C1CCC(=O)NC1=O)C2=O)CC[C@@H](c1ccccc1)n1cc(NC(=O)c2n[nH]c3c2CCC(C)(C)C3)cn1.O=C(O)C(F)(F)F (stereo not given in full)
inhibition [8]: Dose-Dependent Effect
Activity [17]: Non-Toxic
Activity [18]: Non-Toxic
Activity [19]: Non-Toxic
